Laboratory results taken from PubChem BioAssay AID1963837 (Molecular Pharmacology Branch, DTP, NCI, 2024).
“And” between values parts separate entries of the source, which are not always exact repeats. Equal entries are not always repeated.

Tested on: 843126-344-R-J1-PDC complex spheroid viability
Test: Anticancer human tumor 843126-344-R-J1-PDC patient-derived melanoma cell line growth inhibition [POLQ]
Settings: for viability, T/C: stronger effect = lower value; active = viability on the fitted dose curve at most 10% of control; inactive = the rest
Procedure: Multicellular complex tumor spheroid response to Polymerase (POL) inhibitors (novobiocin, ART-558, RP6685) in combination with a variety of drugs and investigational agents in selected tumor cell lines
The POL inhibitors (novobiocin, ART-558, and RP6685) were evaluated both individually and in combination with standard of care and investigational anticancer small molecules within a complex spheroid model of solid tumors. . Complex spheroids include a stromal component modeled by human endothelial cells (HUVEC) and fibroblasts modeled by human mesenchymal stem cells (MSCs). The concentration ranges selected for each drug and investigational agent were based upon clinically achievable concentrations if the clinical Cmax of the agent was known.
Compounds. The drugs and investigational agents: novobiocin (NSC847541), ART-558 (NSC835418), RP-6685 (NSC848927), peposertib (NSC802822), ceralasertib (NSC780249), elimusertib (NSC800525), camonsertib (NSC841442), AZD-1390 (NSC803789), olaparib (NSC753686), talazoparib (NSC767125), rucaparib (NSC756644), sotorasib (NSC818433), MRTX-1133 (NSC836407), SN-38 (NSC673596), topotecan (NSC609699), epotoside (NSC141540), doxorubicin (NSC123127), gemcitabine (NSC613327), 5-fluorouracil (NSC19893), paclitaxel (NSC125973), vemurafenib (NSC761431), MSA-2 (NSC828583), SN-011 (NSC837082), adavosertib (NSC754352), prexasertib (NSC758257), carboplatin (NSC241240) and oxaliplatin (NSC266046), were obtained from the National Cancer Institute (NCI) Developmental Therapeutics Program Chemical Repository (21). The FDA-approved anticancer drug set is available from the Developmental Therapeutics Program at https://dtp.cancer.gov/organization/dscb/obtaining/. […] The stock solutions were prepared in dimethyl sulfoxide (DMSO, Sigma-Aldrich, St. Louis, MO, cat. D2650), except for the platinum compounds which were prepared in saline (Quality Biological, Gaithersburg, MD, cat. 114-055-101), at 800-fold the tested concentration and stored at -70 degrees C prior to their use. All drugs and investigational agents were tested over a range starting from a high concentration at or near the clinical Cmax and decreasing in half-log increments. If the clinical Cmax for an agent had not been determined, the highest concentration tested was 10 microM, except for SN-38, which was tested at a high concentration of 1 microM.
Cell Culture. All cells were maintained in an incubator at 37 degrees C and 5% CO2 with 95% humidity. The PDC lines were cultured according to standard operating procedures established by the NCI PDMR (https://pdmr.cancer.gov). Table 3 of the manuscript, lists the cell lines along with the number of the three cell types plated to form the mct-spheroids and media for tumor cell growth. After thawing, all PDC lines, except 997537-175-T-J1-PDC and 415267-285-R-J2-PDC, were cultured in Matrigel-coated flasks prepared with a working solution of 1X Ham's F-12 nutrient mix, without supplementation (Thermo Fisher Scientific, cat. 11765054), 100 U/mL penicillin-streptomycin (Thermo Fisher Scientific, cat. 15140122), and 2.5% Matrigel (Corning Inc., Corning, NY, cat. 354248) for the first three passages. The two PDC lines 997537-175-T-J1-PDC and 415267-285-R-J2-PDC were cultured on uncoated flasks. The 857933-349-R-J2-PDC line was cultured in 6C/Colon 1B media containing advanced DMEM/F-12 (Thermo Fisher Scientific, cat. 12634028), 10 mM HEPES (Thermo Fisher Scientific, cat. 15630080), 1X GlutaMAX supplement (Thermo Fisher Scientific, cat. 35050061), 0.1 mg/mL primocin (InvivoGen, San Diego, CA, cat. ant-pm-2), 10% defined fetal bovine serum, heat inactivated (HyClone Laboratories Inc., Logan, UT, cat. SH30070.03HI), 50% L-WRN conditioned media (ATCC, cat. CRL-3276), 1.25 mM N-Acetyl-L-cysteine (Sigma-Aldrich, cat. A9165), 10 mM nicotinamide (Sigma-Aldrich, cat. N0636), 1X B-27 supplement (Thermo Fisher Scientific, cat. 17504044), 1X N-2 supplement (Thermo Fisher Scientific, cat. […]
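Throughout, for viability, T/C: spheroids exposed to drugs for seven days before readout.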

CNCc1ccc(-c2[nH]c3cc(F)cc4c3c2CCNC4=O)cc1
> 10 µM: IC50 (curve of compound)
inactive: viability, T/C (compound 0.0316 µM) 99.4% and 100% and 94.8% | viability, T/C (compound 0.1 µM) 77.4% and 81.4% and 75.4% | viability, T/C (compound 0.316 µM) 87.7% and 100% and 97.9% | viability, T/C (compound 1 µM) 76% and 91.1% and 107% | viability, T/C (compound 3.16 µM) 76% and 108% and 89% | viability, T/C (compound 10 µM) 73.8% and 87% and 79.3%

COC1C(OC(N)=O)C(O)C(Oc2ccc3c(O)c(NC(=O)c4ccc(O)c(CC=C(C)C)c4)c(=O)oc3c2C)OC1(C)C (configuration not stated)
> 10 µM: IC50 (compound alone, run of 01/08/2024)
inactive: viability, T/C (compound 1 µM) 92% [middle of 13 runs]

Nc1ccn(C2OC(CO)C(O)C2(F)F)c(=O)n1 (configuration not stated)
< 0.0316 µM: IC50 (curve of compound)
inactive: viability, T/C (compound 0.0316 µM) 46.2% and 42.9% and 42.2% | viability, T/C (compound 0.1 µM) 38.7% and 36.8% (2×) | viability, T/C (compound 0.316 µM) 47.1% and 45.8% and 33.8% | viability, T/C (compound 1 µM) 43% and 35% and 37.6% | viability, T/C (compound 3.16 µM) 41.3% and 39.6% and 33.5% | viability, T/C (compound 10 µM) 38.2% and 37.7% and 35.1%

C#Cc1c(F)ccc2cc(O)cc(-c3ncc4c(N5CC6CCC(C5)N6)nc(OCC56CCCN5CC(F)C6)nc4c3F)c12 (configuration not stated)
> 10 µM: IC50 (curve of compound)
inactive: viability, T/C (compound 0.0316 µM) 90.2% and 115% and 80.5% | viability, T/C (compound 0.1 µM) 116% and 88.3% and 91.5% | viability, T/C (compound 0.316 µM) 96.1% and 97.6% and 95.8% | viability, T/C (compound 1 µM) 78.2% and 100% and 82.2% | viability, T/C (compound 3.16 µM) 95.1% and 96.5% and 95.2% | viability, T/C (compound 10 µM) 87.4% and 85.2% and 85.5%

C=CC(=O)N1CCN(c2nc(=O)n(-c3c(C)ccnc3C(C)C)c3nc(-c4c(O)cccc4F)c(F)cc23)C(C)C1 (configuration not stated) + COC1C(OC(N)=O)C(O)C(Oc2ccc3c(O)c(NC(=O)c4ccc(O)c(CC=C(C)C)c4)c(=O)oc3c2C)OC1(C)C
> 10 µM: IC50 (curve of first compound, second compound 0.0316 µM) | IC50 (curve of first compound, second compound 0.1 µM) | IC50 (curve of first compound, second compound 0.316 µM) | IC50 (curve of first compound, second compound 1 µM) | IC50 (curve of first compound, second compound 3.16 µM) | IC50 (curve of first compound, second compound 10 µM)
inactive: viability, T/C (second compound 0.0316 µM, first compound 0.0316 µM) 98.3% | viability, T/C (second compound 0.0316 µM, first compound 0.1 µM) 100% | viability, T/C (second compound 0.0316 µM, first compound 0.316 µM) 97.4% | viability, T/C (second compound 0.0316 µM, first compound 1 µM) 89% | viability, T/C (second compound 0.0316 µM, first compound 3.16 µM) 94.9% | viability, T/C (second compound 0.0316 µM, first compound 10 µM) 71.4% | viability, T/C (second compound 0.1 µM, first compound 0.0316 µM) 110% | viability, T/C (second compound 0.1 µM, first compound 0.1 µM) 108% | viability, T/C (second compound 0.1 µM, first compound 0.316 µM) 101% | viability, T/C (second compound 0.1 µM, first compound 1 µM) 113% | viability, T/C (second compound 0.1 µM, first compound 3.16 µM) 92.8% | viability, T/C (second compound 0.1 µM, first compound 10 µM) 80.5% | viability, T/C (second compound 0.316 µM, first compound 0.0316 µM) 88.7% | viability, T/C (second compound 0.316 µM, first compound 0.1 µM) 111% | viability, T/C (second compound 0.316 µM, first compound 0.316 µM) 103% | viability, T/C (second compound 0.316 µM, first compound 1 µM) 85% | viability, T/C (second compound 0.316 µM, first compound 3.16 µM) 101% | viability, T/C (second compound 0.316 µM, first compound 10 µM) 78.6% | viability, T/C (second compound 1 µM, first compound 0.0316 µM) 99.8% | viability, T/C (second compound 1 µM, first compound 0.1 µM) 95% | viability, T/C (second compound 1 µM, first compound 0.316 µM) 104% | viability, T/C (second compound 1 µM, first compound 1 µM) 108% | viability, T/C (second compound 1 µM, first compound 3.16 µM) 114% | viability, T/C (second compound 1 µM, first compound 10 µM) 68% | viability, T/C (second compound 3.16 µM, first compound 0.0316 µM) 107% | viability, T/C (second compound 3.16 µM, first compound 0.1 µM) 74.1% | viability, T/C (second compound 3.16 µM, first compound 0.316 µM) 105% | viability, T/C (second compound 3.16 µM, first compound 1 µM) 113% | viability, T/C (second compound 3.16 µM, first compound 3.16 µM) 97.7% | viability, T/C (second compound 3.16 µM, first compound 10 µM) 77.7% | viability, T/C (second compound 10 µM, first compound 0.0316 µM) 82.7% | viability, T/C (second compound 10 µM, first compound 0.1 µM) 107% | viability, T/C (second compound 10 µM, first compound 0.316 µM) 92.9% | viability, T/C (second compound 10 µM, first compound 1 µM) 98.3% | viability, T/C (second compound 10 µM, first compound 3.16 µM) 104% | viability, T/C (second compound 10 µM, first compound 10 µM) 83.5%

CCc1c2c(nc3ccc(O)cc13)-c1cc3c(c(=O)n1C2)COC(=O)[C@]3(O)CC
> 1 µM: IC50 (curve of compound)
inactive: viability, T/C (compound 0.00316 µM) 62.8% and 69.6% and 70% | viability, T/C (compound 0.01 µM) 52.5% and 56.2% and 54.6% | viability, T/C (compound 0.0316 µM) 61.5% and 68% and 63% | viability, T/C (compound 0.1 µM) 71.1% and 62.4% and 61.4% | viability, T/C (compound 0.316 µM) 57% and 64% and 62.5% | viability, T/C (compound 1 µM) 53.9% and 45.5% and 50.1%
